Results reported in patent publication US9604984B2, “5-chloro-2-difluoromethoxyphenyl pyrazolopyrimidine compounds, compositions and methods of use thereof” (Genentech, Inc., priority 2014, dated 2017).

Assays:
[1] = target: isolated recombinant JAK1 kinase domain (Homo sapiens (Human), UniProt P23458); test: JAK1 enzyme assay (Caliper LabChip, peptide phosphorylation); type: biochemical; details: 25 μM ATP
Procedure: (§1) JAK Enzyme Assays were carried out as follows:
(§2) The activity of the isolated recombinant JAK1 and JAK2 kinase domain was measured by monitoring phosphorylation of a peptide derived from JAK3 ([…] fluorescently labeled on the N-terminus with 5-carboxyfluorescein) using the Caliper LabChip® technology (Caliper Life Sciences, Hopkinton, Mass.). […] Reactions were incubated at 22° C. in 384-well polypropylene microtiter plates for 30 minutes and then stopped by addition of 25 μL of an EDTA containing solution (100 mM HEPES buffer (pH 7.2), 0.015% Brij-35, 150 mM EDTA), resulting in a final EDTA concentration of 50 mM. After termination of the kinase reaction, the proportion of phosphorylated product was determined as a fraction of total peptide substrate using the Caliper LabChip® 3000 according to the manufacturer's specifications.

[2] = target: isolated recombinant JAK2 kinase domain (Homo sapiens (Human), UniProt O60674); test: JAK2 enzyme assay (Caliper LabChip, peptide phosphorylation); type: biochemical; details: 25 μM ATP
Chain of isolated recombinant JAK2 kinase domain (O60674 849-1124): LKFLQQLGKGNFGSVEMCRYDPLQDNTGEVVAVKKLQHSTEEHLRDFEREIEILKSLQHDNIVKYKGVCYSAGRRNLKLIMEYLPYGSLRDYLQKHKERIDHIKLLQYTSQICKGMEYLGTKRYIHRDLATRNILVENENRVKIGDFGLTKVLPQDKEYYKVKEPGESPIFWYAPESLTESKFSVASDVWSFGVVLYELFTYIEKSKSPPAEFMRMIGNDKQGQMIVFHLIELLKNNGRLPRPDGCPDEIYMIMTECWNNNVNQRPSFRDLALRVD
Procedure: as §1, §2

[3] = Clearance assay: mouse intravenous (IV) clearance; type: in vivo; details: female BALB/c mice, single IV dose of 1 mg/kg
Description: In certain instances high systemic clearance of a drug substance may be of benefit. For example, in the treatment of pulmonary diseases it may be beneficial to have high drug concentrations in the lung, with lower concentrations in the bloodstream or peripheral organs. In such cases, it may be advantageous to administer a drug substance with high systemic clearance via the inhaled delivery route. This approach may maximize pharmacologic activity of the drug substance in the lung while minimizing the possibility of on-target toxicity elsewhere in the body. The functional groups appended to the 5-chloro-2-difluoromethoxyphenyl pyrazolopyrimidine scaffold affect systemic clearance.
Female BALB/c mice were obtained from Charles River Labs (Hollister, Calif. USA). Twelve animals were given a single IV dose of 1 mg/kg of compounds via the tail vein. A representative dose solution was prepared as follows: the compound was dissolved in a mixture of 5% dimethylsulfoxide (DMSO), 35% polyethylene glycol (PEG 400), and 60% water (v/v/v), respectively, and administered at a dosing volume of 5 mL/kg. Mice weighed approximately 20-25 g at the start of the study. […] PK data analysis was performed on mean plasma concentration-time data and PK parameters were determined by non compartmental methods using WinNonlin® Enterprise, version 5.2.1 (Pharsight Corporation; Mountain View, Calif.).

Chain of isolated recombinant JAK1 kinase domain (P23458 875-1153): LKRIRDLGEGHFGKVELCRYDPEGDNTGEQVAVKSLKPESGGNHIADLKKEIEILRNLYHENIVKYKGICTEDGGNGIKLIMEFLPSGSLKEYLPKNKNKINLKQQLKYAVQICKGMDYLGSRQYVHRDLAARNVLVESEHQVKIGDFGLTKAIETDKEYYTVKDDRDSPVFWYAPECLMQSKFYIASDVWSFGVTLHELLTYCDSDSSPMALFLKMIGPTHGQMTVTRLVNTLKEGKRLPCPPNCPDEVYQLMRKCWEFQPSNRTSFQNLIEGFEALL

Row | Ki [1] [nM] | Ki [2] [nM] | mouse IV clearance as % of mouse liver blood flow [3] | Compound
1 | 0.6 | 1.64 |  | CNC(=O)[C@@H]1CCCN1CC1CCN(C(=O)Cn2cc(NC(=O)c3cnn4cccnc34)c(-c3cc(Cl)ccc3OC(F)F)n2)CC1 [Example 425, N-(3-(5-chloro-2-(difluoromethoxy)phenyl)-1-(2-(4-(((S)-2-(methylcarbamoyl)pyrrolidin-1-yl)methyl)piperidin-1-yl)-2-oxoethyl)-1H-pyrazol-4-yl)pyrazolo[1,5-a]pyrimidine-3-carboxamide]
2 |  |  | 6 % of mouse liver blood flow | CC(C)(O)Cn1cc(NC(=O)c2cnn3cccnc23)c(-c2cc(Cl)ccc2OC(F)F)n1 [compound i]
